From patent publication US11028074B2, “CD73 inhibitors” (Eli Lilly and Company, priority 2018, dated 2021) come the findings set out here.

The EC50 is the midpoint of the concentration-response curve. One may read the inhibition as the relative decrease from the control value, in per cent.

One test has as its target T1, CD73 (Homo sapiens, UniProt P21589).
T1 sequence (P21589 27-549): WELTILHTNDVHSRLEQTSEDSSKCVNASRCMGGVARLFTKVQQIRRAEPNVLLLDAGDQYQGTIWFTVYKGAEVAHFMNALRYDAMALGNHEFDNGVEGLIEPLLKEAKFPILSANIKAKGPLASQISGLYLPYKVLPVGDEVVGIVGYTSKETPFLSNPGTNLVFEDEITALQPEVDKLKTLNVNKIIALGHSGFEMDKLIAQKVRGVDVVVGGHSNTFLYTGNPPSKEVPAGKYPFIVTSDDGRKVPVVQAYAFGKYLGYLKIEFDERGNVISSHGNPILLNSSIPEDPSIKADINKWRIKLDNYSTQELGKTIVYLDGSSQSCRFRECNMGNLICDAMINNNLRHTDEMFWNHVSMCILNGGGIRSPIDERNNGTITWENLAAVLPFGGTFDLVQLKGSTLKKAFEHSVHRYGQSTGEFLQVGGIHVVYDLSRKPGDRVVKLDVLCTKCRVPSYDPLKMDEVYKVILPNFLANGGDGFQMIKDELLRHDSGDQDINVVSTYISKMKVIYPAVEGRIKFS
As to the kind of experiment: LC/MS Based Assay for Measuring CD73 Activity in Human Serum. Also noted: from tissue; host or cells: normal human serum. The conditions noted are these: concentrations corrected with the fraction unbound, read-out: EC50, inhibition of CD73 activity in human serum. The class given is biochemical. As to the method: Fresh normal human blood is centrifuged at 1,500 g for 15 minutes at room temperature, and the upper fraction containing serum is collected. […] After incubation on ice for 60 min, […] (50 uM) is added to each well in the plate, and the plate is incubated at room temperature for 15 min. The plate is then placed on dry ice with addition of 200 uL/well of 17.3 TCA followed by shaking at 26 fps for 3 min with a plate-shaking machine (Qiagen). The plate is then centrifuged at 2940 g for 20 min at 4° C. […] After further centrifugation at 2940 g for 20 min at 4° C., 200 ul/well of the supernatant is used for analysis of ^13C10-^15N5-adenosine, ^13C10-^15N5-inosine and ^15N5-hypoxanthine by LC/MS as described above. For EC50 calculations, the concentrations of the CD73 inhibitor in the serum are corrected with the fraction unbound (%) derived from in silico models or experimentally.

The subject of a further test is CD4^+ T cells. The test is described as follows: Cytokine Analysis (ELISA). The test is classed as cell-based, human. As to the method:
CFSE labeled human PBMCs (600,000 cells/mL) or CD4 cells (500,000 cells/mL) are mixed with Dynabeads® Human T-Activator CD3/CD28 (Gibco, cat #11131D) at a ratio of 1:1 of cell/beads and human IL-2 (60 IU/ml, Roche, cat #: 11011456001). Cells are placed in a 37° C. water bath for 10 min to pre-activate T cells. PBMCs (125 μl/well) or CD4 cells (100 μl/well) are transferred to a 96 well plate (Costar 3799, Corning Inc.). To test compounds using PBMCs, test compounds at various concentrations are prepared in cell normal growth media (125 μL) containing 400-600 μM AMP. To test compounds using CD4 cells, test compounds at various concentrations are prepared in cell normal growth media (100 μL) containing 200-250 μM AMP. Treated cells are cultured at 37° C., 5% CO2 for 68-70 hr.
Medium (160 μl) containing treated PBMCs is transferred to a plate and the remaining medium used for cytokine assay is transferred to AcroPrep 96 plates (AcroPrep 96 Filter plate, Omega 3K NTRL 350 ul well, Pall Life Science Cat #8033) for preparation of samples for LC-MS analysis of metabolites.
Culture medium from treated PBMCs is diluted at 1:7.5, 1:2.5 and 1:50 with 1× ELISA/ELISPOT Diluent from cytokine ELISA kits and analyzed for TNFα using Human TNF alpha ELISA Ready-SET-GO! Kit (eBioscience cat #88-7346-22), IL-1β using Human IL-1β ELISA ready-SET-GO! Kit (2nd generation) (eBioscience, cat #88-7261-22) and IFNγ using Human IFN gamma ELISA ready-SET-GO! Kit (eBioscience, cat #88-7316-22) based manufacturer's manuals.
In general terms: In an ELISA, binding on a coated surface is turned into a signal by an enzyme label.

The next test deals with human PBMCs or CD4 cells. As to the kind of experiment: T Cell Suppression Assay (rescue of adenosine-mediated inhibition of T cell proliferation). The test is classed as cell-based. The conditions noted are these: for Rescue of T cell proliferation (%): AMP in medium, 68-70 hr. The procedure: Cells are placed in a 37° C. water bath for 10 min to pre-activate T cells. […] To test compounds using PBMCs, test compounds at various concentrations are prepared in cell normal growth media (125 μL) containing 400-600 μM AMP. […] Treated cells are cultured at 37° C., 5% CO2 for 68-70 hr.
Medium (100 μl) containing CD4 cells is transferred to and filtered through AcroPrep plates to another plate via centrifugation at 1500 g for 2 hr. Filtered medium (50 μl/well) is mixed with the same volume of 80% methanol, 1% NH4OH, and internal standards (250 ng/mL ^13C5-AMP and 250 ng/mL ^13C5-Adenosine) for LC-MS analysis of metabolites.
Treated PBMCs or CD4 cells are collected and stained for Flow Cytometry to quantify T cell proliferation.
Flow data are acquired by BD FACS Verse. Each fluorescence channel is appropriately compensated. The data are processed on FloJo ver. 7.6.5 with the following gating strategy: lymphocytes gated on FSC vs SSC dot plot; viable cells of lymphocytes gated on SSC vs Zombie Aqua dot plot; CD3 cells of viable lymphocytes gated on APC-Cy7 vs Zombie Aqua dot plot1; CD4 cell and CD8 cells of CD3 cells gated on APC vs Pacific Blue dot plot; CD4 and CD8 cells further gated on APC vs CFSE(FITC) and Pacific Blue vs CFSE(FITC) dot plots. Proliferation of CD4 and CD8 cells is analyzed by a proliferation tool.

The target in another test is T2, murine CD73 (Mus musculus, UniProt Q61503).
T2 construct: from tissue; host or cells: mouse whole blood (heparin) from orally dosed animals
T2 sequence (Q61503 29-551): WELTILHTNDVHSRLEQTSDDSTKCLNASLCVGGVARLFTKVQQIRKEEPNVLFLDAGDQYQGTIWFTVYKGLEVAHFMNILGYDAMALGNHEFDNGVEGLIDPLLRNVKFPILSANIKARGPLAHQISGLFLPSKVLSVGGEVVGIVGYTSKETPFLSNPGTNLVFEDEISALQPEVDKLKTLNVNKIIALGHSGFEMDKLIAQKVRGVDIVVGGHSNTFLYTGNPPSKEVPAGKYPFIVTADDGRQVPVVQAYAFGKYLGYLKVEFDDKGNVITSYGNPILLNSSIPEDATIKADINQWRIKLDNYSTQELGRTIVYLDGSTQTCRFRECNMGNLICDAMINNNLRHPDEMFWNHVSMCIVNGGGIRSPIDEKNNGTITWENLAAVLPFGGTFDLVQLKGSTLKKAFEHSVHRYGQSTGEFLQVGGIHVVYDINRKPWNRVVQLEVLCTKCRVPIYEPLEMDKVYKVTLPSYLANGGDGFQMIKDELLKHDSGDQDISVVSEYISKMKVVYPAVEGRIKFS
The test is described as follows: Ex Vivo Target Inhibition Assay (mouse whole blood after oral dosing). The test is classed as in vivo. The conditions noted are these: read-out: Inhibition of AMP conversion to adenosine, Inhibition (%). The procedure:
The animals (6/group) are dosed orally with each compound formulated in 20% HPBCD (2-hydroxypropyl-β-cyclodextrin), pH 2 after tumors reach to approximately 400 mm^3.

Consider `CC(C)[C@H]1C[C@@H]1c1cc(-c2c[nH]c(=O)[nH]c2=O)nnc1Cl` (relative stereo) [Example 8, 5-[6-Chloro-5-[rel-(1S,2R)-2-isopropylcyclopropyl]pyridazin-3-yl]-1H-pyrimidine-2,4-dione], for which the EC50 at CD73 is 179 nM.

With `O=c1[nH]cc(-c2cc([C@H]3CC3(F)F)c(Cl)nn2)c(=O)[nH]1` (single isomer, unassigned) [Example 9], at CD73, the EC50 was determined as 297 nM.

As for `Cc1nnc(-c2c[nH]c(=O)[nH]c2=O)cc1[C@H]1C[C@@H]1C(C)C` [Example 2, 5-[5-[(1S,2R)-2-isopropylcyclopropyl]-6-methyl-pyridazin-3-yl]-1H-pyrimidine-2,4-dione], the “INF-γ release, INF-γ” value in the test with CD4^+ T cells (compound 0.003 uM) amounted to 34.5 pg/mL; in the test with CD4^+ T cells (compound 0.008 uM), 29.5 pg/mL; in the test with CD4^+ T cells (compound 0.025 uM) it was 51.1 pg/mL; with CD4^+ T cells (compound 0.074 uM), 59.4 pg/mL; in the test on CD4^+ T cells (compound 0.222 uM), 146.7 pg/mL; in the test on CD4^+ T cells (compound 2.000 uM), 99.5 pg/mL. For the same compound, the “INF-γ release, INF-γ” value in the test with CD4^+ T cells (compound 6.000 uM) is 105.3 pg/mL. The “TNF-α release, TNF-α” value in the test on CD4^+ T cells (compound 0.003 uM) was 386.3 pg/mL; with CD4^+ T cells (compound 0.008 uM), 419.9 pg/mL; with CD4^+ T cells (compound 0.025 uM) it was 557.8 pg/mL; with CD4^+ T cells (compound 0.074 uM), 782.0 pg/mL; in the test with CD4^+ T cells (compound 0.222 uM) it was 1265.5 pg/mL; in the test on CD4^+ T cells (compound 2.000 uM), 1183.9 pg/mL. Moreover, the “TNF-α release, TNF-α” value in the test with CD4^+ T cells (compound 6.000 uM) was 1985.5 pg/mL. The “Adenosine (uM) in the growth medium” value in the test with human PBMCs or CD4 cells (compound 0.00229 uM) came out at 0.28 µM; in the test with human PBMCs or CD4 cells (compound 0.00686 uM), 0.28 µM; in the test on human PBMCs or CD4 cells (compound 0.02058 uM), 0.21 µM; with human PBMCs or CD4 cells (compound 0.06173 uM), 0.15 µM; in the test on human PBMCs or CD4 cells (compound 0.18519 uM), 0.086 µM; with human PBMCs or CD4 cells (compound 0.55556 uM) it was 0.046 µM. Besides, the “Adenosine (uM) in the growth medium” value is 0.027 µM in the test with human PBMCs or CD4 cells (compound 1.66667 uM) and 0.017 µM with human PBMCs or CD4 cells (compound 5.00 uM). Moreover, the “Rescue of T cell proliferation (%)” value in the test with human PBMCs or CD4 cells (compound 0.00229 uM) is listed as −6%; in the test with human PBMCs or CD4 cells (compound 0.00686 uM), −3%; in the test on human PBMCs or CD4 cells (compound 0.02058 uM), −2%; in the test with human PBMCs or CD4 cells (compound 0.06173 uM), 37%; in the test with human PBMCs or CD4 cells (compound 0.18519 uM), 95%; with human PBMCs or CD4 cells (compound 0.55556 uM), 104%. In addition, the “Rescue of T cell proliferation (%)” value came to 106% in the test on human PBMCs or CD4 cells (compound 1.66667 uM) and 107% in the test on human PBMCs or CD4 cells (compound 5.00 uM). Further, on murine CD73 (1 mg/kg oral), the inhibition at 1 mg/kg was -10.6%. For the same compound, on murine CD73 (2.5 mg/kg oral), the inhibition at 2.5 mg/kg turned out to be 25.2%. Also, on murine CD73 (6.4 mg/kg oral), the inhibition at 6.4 mg/kg came to 37%. Also, the inhibition at 16 mg/kg on murine CD73 (16 mg/kg oral) was determined as 56.5%. Also, the inhibition at 40 mg/kg on murine CD73 (40 mg/kg oral) worked out at 88.6%. Besides, the inhibition at 100 mg/kg at murine CD73 (100 mg/kg oral) is 94.3%.

Take `O=c1[nH]cc(-c2cc([C@H]3C[C@@H]3C(F)F)c(Cl)nn2)c(=O)[nH]1` [Example 10, 5-[6-Chloro-5-[(1S,2S)-2-(difluoromethyl)cyclopropyl]pyridazin-3-yl]-1H-pyrimidine-2,4-dione]: on CD73, the EC50 is 55 nM.

Consider `CC[C@H]1C[C@@H]1c1cc(-c2c[nH]c(=O)[nH]c2=O)nnc1C#N` [Example 22, 6-(2,4-Dioxo-1H-pyrimidin-5-yl)-4-[(1S,2S)-2-ethylcyclopropyl]pyridazine-3-carbonitrile], for which the EC50 at CD73 turned out to be 212 nM.
